Data reported in patent US20090221522A1, “METHODS TO CORRECT GENE SET EXPRESSION PROFILES TO DRUG SENSITIVITY” (The Johns Hopkins University, priority 2008, published 2009).

Test system: direct-patient pancreatic cancer xenografts
Assay: Xenograft treatment, relative tumor growth inhibition (TGI)
Assay type: in vivo, mice
From the text: Four- to six-week-old female athymic (nu/nu) mice were purchased from Harlan (Harlan Laboratories, Washington, D.C.). The research protocol was approved by the Johns Hopkins University Animal Use and Care Committee and animals were maintained in accordance to guidelines of the American Association of Laboratory Animal Care. Xenografts obtained from F1 mice were excised and cut into small ˜3×3×3 mm fragments and then implanted subcutaneously in a group of five to six mice for each patient, with two small fragments in each mouse (F2) as described above for the original carcinoma. Half of the rest of the carcinoma was cryopreserved in liquid nitrogen and the other half is processed for biological studies. When the carcinoma reached a size of 1,500 mm^3, they were excised, cut into ˜3×3×3 mm fragments, and transplanted to the final cohort of mice to be treated with the drugs (F3 and successive passages). Further details of the establishment of the direct-patient pancreatic cancer xenografts are described in Rubio-Viqueira B, Jimeno A, Cusatis G, et al. An In vivo Platform for Translational Drug Development in Pancreatic Cancer. Clin Cancer Res 2006 12:4652-61.
Gemcitabine (Eli Lilly, Indianapolis, Ind.) was dissolved in saline. In some embodiments, docetaxel (Sanofi-Aventis, Bridgewater, N.J.) was dissolved in 50% ethanol and 50% DMSO. In other embodiments, docetaxel (Sanofi-Aventis, Bridgewater, N.J.) was dissolved in ethanol/polysorbate 80 as a stock solution and diluted 10-fold in 5% glucose for in vivo studies. Temsirolimus (Wyeth Research, Colleville, Pa.) was dissolved in 10% ethanol, 10% pluronic, and 80% PBS. All drugs were freshly prepared and used at an injection volume of 0.2 mL/20 g body weight. Drug doses and treatment schedules were obtained from published studies.
Xenografts from this second mouse-to-mouse passage (F3) were allowed to grow to a size of ˜200 mm^3, at which time five-to-six mice were randomly assigned to control and treatment groups. […] For docetaxel treatment group, mice were treated with 20 mg/kg once a week via intraperitoneal injection. For temsirolimus treatment group, mice were treated with 20 mg/kg/day via intraperitoneal injection. Mice were treated for 21-28 days, monitored daily for signs of toxicity, and were weighed thrice a week. Tumor size was evaluated thrice a week by caliper measurements using the following formula: tumor volume=[length×width^2]/2 as reported by van de Vijver M J, He Y D, van't Veer L J, et al. A Gene-Expression Signature as a Predictor of Survival in Breast Cancer. N Engl J Med 2002 347:1999-2009.
Relative tumor growth index (TGI) was calculated as TGI=(Ti−T0/Ci−C0) if Ti>T0 (indicates tumor growth inhibition) and TGI=(Ti−T0) if Ti≦T0 (indicates tumor regression). T and C represent tumor size in the treated and control group at the last of experiment, respectively; T0 and C0 represent tumor size in the treated and control group at the start of treatment, respectively.

SMILES: Nc1ccn([C@@H]2O[C@H](CO)[C@@H](O)C2(F)F)c(=O)n1 [gemcitabine]
- average TGI (five xenografts connected to gemcitabine sensitive NCI-60 cell lines): −24%
- responders (TGI less than −30%, RECIST criterion) (of thirty xenografts, gemcitabine, PANC194, PANC266, PANC294, PANC140, PANC253): five responders
- TGI (xenograft PANC194, gemcitabine): −63%
